Results reported in patent US10906889B2, “Polycyclic inhibitors of cyclin-dependent kinase 7 (CDK7)” (Dana-Farber Cancer Institute, Inc., priority 2013, dated 2021).
Where two headings read alike, the source gives them in different places.

How the values were obtained:
SAOS = experiment: Cell proliferation (CellTiter-Glo, 72 hour), SAOS; assay type: cell-based; conditions: osteosarcoma cell line, read-out: SAOS inhibition of proliferation (IC50)
MNNG-HOS Cl #5 = experiment: Cell proliferation (CellTiter-Glo, 72 hour), MNNG-HOS Cl #5; assay type: cell-based; conditions: osteosarcoma cell line, read-out: MNNG-HOS Cl#5 inhibition of proliferation (IC50)
Hs863T = experiment: Cell proliferation (CellTiter-Glo, 72 hour), Hs863T; assay type: cell-based; conditions: Ewing's sarcoma cell line, read-out: Hs863T inhibition of proliferation (IC50)
MCF7 = experiment: Cell proliferation (CellTiter-Glo, 72 hour), MCF7; assay type: cell-based; conditions: Homo sapiens, breast cancer cell line, read-out: MCF7 inhibition of proliferation (IC50)
MCF10A = experiment: Cell proliferation (CellTiter-Glo, 72 hour), MCF10A; assay type: cell-based; conditions: Homo sapiens, MCF-10A, breast cancer cell lines table, read-out: MCF10A inhibition of proliferation (IC50)
T47D = experiment: Cell proliferation (CellTiter-Glo, 72 hour), T47D; assay type: cell-based; conditions: Homo sapiens, breast cancer cell line, read-out: T47D inhibition of proliferation (IC50)
MV4-11 = experiment: Cell proliferation (CellTiter-Glo, 72 hour), MV4-11; assay type: cell-based; conditions: Homo sapiens, blood cancer cell line, read-out: MV4-11 inhibition of proliferation (IC50)
A673 = experiment: Cell proliferation (CellTiter-Glo, 72 hour), A673; assay type: cell-based; conditions: Homo sapiens, Ewing's sarcoma cell line, read-out: A673 inhibition of proliferation (IC50)
RD-ES = experiment: Cell proliferation (CellTiter-Glo, 72 hour), RD-ES; assay type: cell-based; conditions: Ewing's sarcoma cell line, read-out: RD-ES inhibition of proliferation (IC50)
RS4-11 = experiment: Cell proliferation (CellTiter-Glo, 72 hour), RS4-11; assay type: cell-based; conditions: Homo sapiens, blood cancer cell line, read-out: RS4-11 inhibition of proliferation (IC50)
THP-1 = experiment: Cell proliferation (CellTiter-Glo, 72 hour), THP-1; assay type: cell-based; conditions: Homo sapiens, blood cancer cell line, read-out: THP-1 inhibition of proliferation (IC50)
HL60 = experiment: Cell proliferation (CellTiter-Glo, 72 hour), HL60; assay type: cell-based; conditions: Homo sapiens, HL-60, blood cancer cell line, read-out: HL60 inhibition of proliferation (IC50)
143B = experiment: Cell proliferation (CellTiter-Glo, 72 hour), 143B; assay type: cell-based; conditions: Homo sapiens, osteosarcoma cell line, read-out: 143B inhibition of proliferation (IC50)
Hs822T = experiment: Cell proliferation (CellTiter-Glo, 72 hour), Hs822T; assay type: cell-based; conditions: Ewing's sarcoma cell line, read-out: Hs822T inhibition of proliferation (IC50)
hTERT-HME1 = experiment: Cell proliferation (CellTiter-Glo, 72 hour), hTERT-HME1; assay type: cell-based; conditions: breast cancer cell lines table, read-out: hTERT-HME1 inhibition of proliferation (IC50)
MDA-MB231 = experiment: Cell proliferation (CellTiter-Glo, 72 hour), MDA-MB231; assay type: cell-based; conditions: Homo sapiens, MDA-MB-231, breast cancer cell line, read-out: MDA-MB231 inhibition of proliferation (IC50)
SK-ES-1 = experiment: Cell proliferation (CellTiter-Glo, 72 hour), SK-ES-1; assay type: cell-based; conditions: Homo sapiens, SK-ES1, Ewing's sarcoma cell line, read-out: SK-ES-1 inhibition of proliferation (IC50)
SKBR3 = experiment: Cell proliferation (CellTiter-Glo, 72 hour), SKBR3; assay type: cell-based; conditions: Homo sapiens, SK-BR-3, breast cancer cell line, read-out: SKBR3 inhibition of proliferation (IC50)
CDK5/p25 = CDK5/p25 (Homo sapiens, UniProt Q00535); experiment: Z'-Lyte kinase assay (Life Technologies), CDK5/p25
Chain of CDK5/p25 (Q00535 whole entry): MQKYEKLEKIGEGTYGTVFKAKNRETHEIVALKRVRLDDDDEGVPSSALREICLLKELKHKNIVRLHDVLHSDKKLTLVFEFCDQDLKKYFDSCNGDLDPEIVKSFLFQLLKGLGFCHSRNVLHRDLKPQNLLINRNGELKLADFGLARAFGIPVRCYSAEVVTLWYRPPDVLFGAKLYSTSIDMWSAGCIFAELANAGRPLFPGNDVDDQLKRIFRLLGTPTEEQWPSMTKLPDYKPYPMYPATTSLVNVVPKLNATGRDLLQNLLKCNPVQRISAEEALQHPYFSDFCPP
Chain of CDK5/p25 (Q15078 99-307 partner limits assumed): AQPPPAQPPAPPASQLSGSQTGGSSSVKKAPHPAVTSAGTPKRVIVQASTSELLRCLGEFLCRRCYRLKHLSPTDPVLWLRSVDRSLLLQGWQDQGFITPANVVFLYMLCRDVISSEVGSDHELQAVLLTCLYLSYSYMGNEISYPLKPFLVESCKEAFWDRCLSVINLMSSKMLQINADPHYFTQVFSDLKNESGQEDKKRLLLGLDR
Procedure: (§1) Compounds of the invention were assayed for activity against a variety of different kinases at Life Technologies™ (Grand Island, N.Y.) using their commercially available Adapta® (for CDK7, CDK9/cyclin T1, and IRAK1 kinases), Z′-Lyte® (for CDK1, CDK2, CDK5/p25, CDK5/p35, JNK1 and JNK2 kinases), and LanthaScreen Eu® (for CDK8, CDK9/cyclin K and MLK3) kinase assay services. Test compounds were tested at 100 nM and 1 μM final concentrations in 1% DMSO against all kinases except CDK7. For CDK7, test compounds were tested at concentrations ranging from 10 μM to 0.514 nM in a series of 3-fold serial dilutions. […] The co-factors used for each kinase in the assays were as follows: CDK1: cyclin B; CDK2: cyclin A; CDK5: p25 or p35 as indicated; CDK7: cyclin H and MNAT1; CDK8: cyclin C; CDK9: cyclin K or cyclin T1 as indicated; IRAK1: Histone H3 (1-20) peptide; JNK1: none required; JNK2: none required; MLK3: none required.

MLK3 = target: T1, MLK3 (Homo sapiens, UniProt Q16584); experiment: LanthaScreen Eu kinase assay (Life Technologies), MLK3; assay type: binding
T1 construct: purchased Life Technologies (assay service)
T1 sequence (Q16584 whole entry): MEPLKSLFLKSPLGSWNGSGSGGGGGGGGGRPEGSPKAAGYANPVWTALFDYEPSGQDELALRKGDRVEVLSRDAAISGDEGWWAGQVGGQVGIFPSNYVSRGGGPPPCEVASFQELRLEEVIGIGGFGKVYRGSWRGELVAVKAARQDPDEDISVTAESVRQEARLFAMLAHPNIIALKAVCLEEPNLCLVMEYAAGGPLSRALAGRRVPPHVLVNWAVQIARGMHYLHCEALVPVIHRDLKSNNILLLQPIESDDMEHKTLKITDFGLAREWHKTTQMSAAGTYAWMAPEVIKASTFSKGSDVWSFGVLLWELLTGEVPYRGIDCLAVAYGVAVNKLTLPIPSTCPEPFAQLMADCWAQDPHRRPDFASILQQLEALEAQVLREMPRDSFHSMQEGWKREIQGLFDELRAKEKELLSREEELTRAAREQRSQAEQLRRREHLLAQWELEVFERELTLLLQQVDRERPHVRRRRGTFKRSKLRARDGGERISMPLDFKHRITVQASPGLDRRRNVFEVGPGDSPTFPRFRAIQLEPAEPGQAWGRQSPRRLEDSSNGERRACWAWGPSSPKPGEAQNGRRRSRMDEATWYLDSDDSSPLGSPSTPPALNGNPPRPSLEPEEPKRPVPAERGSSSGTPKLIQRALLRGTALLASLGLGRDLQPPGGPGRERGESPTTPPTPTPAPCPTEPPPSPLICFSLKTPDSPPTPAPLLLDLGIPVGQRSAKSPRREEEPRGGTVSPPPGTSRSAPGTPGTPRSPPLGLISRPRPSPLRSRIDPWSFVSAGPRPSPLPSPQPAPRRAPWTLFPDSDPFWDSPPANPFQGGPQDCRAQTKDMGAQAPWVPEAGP

CDK9/cyclin T1 = CDK9/cyclin T1 (Homo sapiens, UniProt P50750); experiment: Adapta kinase assay (Life Technologies), CDK9/cyclin T1
Procedure: as §1

CDK7 = target: T2, CDK7 (Homo sapiens, UniProt P50613); experiment: Adapta kinase assay (Life Technologies), CDK7; assay type: biochemical
T2 construct: purchased Life Technologies (assay service)
T2 sequence (P50613 whole entry): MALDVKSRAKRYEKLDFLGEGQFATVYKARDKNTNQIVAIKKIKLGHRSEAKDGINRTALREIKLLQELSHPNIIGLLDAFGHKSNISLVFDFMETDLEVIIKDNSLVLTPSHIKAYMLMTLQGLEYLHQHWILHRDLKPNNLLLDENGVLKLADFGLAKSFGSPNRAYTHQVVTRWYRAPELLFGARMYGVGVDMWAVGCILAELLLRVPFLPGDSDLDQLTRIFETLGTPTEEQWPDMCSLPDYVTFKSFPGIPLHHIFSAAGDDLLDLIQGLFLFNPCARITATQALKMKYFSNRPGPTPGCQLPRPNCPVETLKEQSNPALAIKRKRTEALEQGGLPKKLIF
T2 sequence (P51946 whole entry partner): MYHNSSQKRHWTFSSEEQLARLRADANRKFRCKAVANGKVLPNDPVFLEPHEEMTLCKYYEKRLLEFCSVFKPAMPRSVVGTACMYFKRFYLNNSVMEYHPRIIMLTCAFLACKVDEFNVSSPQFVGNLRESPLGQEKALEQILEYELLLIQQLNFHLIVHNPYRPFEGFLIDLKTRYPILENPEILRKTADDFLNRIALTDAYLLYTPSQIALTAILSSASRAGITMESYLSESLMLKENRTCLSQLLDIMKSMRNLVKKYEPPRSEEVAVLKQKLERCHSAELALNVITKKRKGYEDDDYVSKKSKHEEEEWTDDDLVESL
T2 sequence (P51948 whole entry partner): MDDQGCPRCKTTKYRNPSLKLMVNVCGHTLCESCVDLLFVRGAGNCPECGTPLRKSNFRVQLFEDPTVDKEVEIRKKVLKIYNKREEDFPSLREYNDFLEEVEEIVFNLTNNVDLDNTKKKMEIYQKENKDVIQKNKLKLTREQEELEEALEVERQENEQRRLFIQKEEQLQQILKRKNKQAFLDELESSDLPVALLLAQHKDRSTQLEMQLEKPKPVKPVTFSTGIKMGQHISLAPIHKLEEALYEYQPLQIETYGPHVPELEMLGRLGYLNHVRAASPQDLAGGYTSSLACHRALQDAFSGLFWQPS

IRAK1 = target: T3, IRAK1 (Homo sapiens, UniProt P51617); experiment: Adapta kinase assay (Life Technologies), IRAK1; assay type: biochemical
T3 construct: purchased Life Technologies (assay service)
T3 sequence (P51617 whole entry): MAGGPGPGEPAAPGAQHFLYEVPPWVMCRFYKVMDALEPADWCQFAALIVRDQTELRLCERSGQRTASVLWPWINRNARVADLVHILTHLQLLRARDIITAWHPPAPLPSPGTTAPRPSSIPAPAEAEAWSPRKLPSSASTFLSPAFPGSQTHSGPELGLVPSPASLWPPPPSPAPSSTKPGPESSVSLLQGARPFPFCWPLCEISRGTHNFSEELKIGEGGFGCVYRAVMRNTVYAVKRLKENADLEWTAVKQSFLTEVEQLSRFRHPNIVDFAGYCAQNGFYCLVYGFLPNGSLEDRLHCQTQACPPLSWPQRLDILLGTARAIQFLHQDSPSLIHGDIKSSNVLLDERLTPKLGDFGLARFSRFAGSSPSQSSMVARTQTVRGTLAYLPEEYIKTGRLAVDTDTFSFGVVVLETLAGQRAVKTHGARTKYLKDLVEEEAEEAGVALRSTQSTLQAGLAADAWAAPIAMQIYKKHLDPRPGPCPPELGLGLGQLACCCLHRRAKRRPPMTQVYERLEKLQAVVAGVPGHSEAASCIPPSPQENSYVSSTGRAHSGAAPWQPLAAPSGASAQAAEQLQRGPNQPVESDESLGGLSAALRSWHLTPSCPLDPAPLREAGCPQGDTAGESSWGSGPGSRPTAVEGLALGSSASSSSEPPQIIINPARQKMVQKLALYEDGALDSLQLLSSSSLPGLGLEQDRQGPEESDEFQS

CDK1 = target: T4, CDK1 (Homo sapiens, UniProt P06493); experiment: Z'-Lyte kinase assay (Life Technologies), CDK1; assay type: biochemical; conditions: co-factor cyclin B
T4 construct: purchased Life Technologies (assay service)

Jurkat cells = experiment: Cell proliferation (CellTiter-Glo, 72 hour), Jurkat; assay type: cell-based; conditions: Homo sapiens, blood cancer cell line
JNK1 = target: T5, JNK1 (Homo sapiens, UniProt P45983); experiment: Z'-Lyte kinase assay (Life Technologies), JNK1; assay type: biochemical
T5 construct: purchased Life Technologies (assay service)
T5 sequence (P45983 whole entry): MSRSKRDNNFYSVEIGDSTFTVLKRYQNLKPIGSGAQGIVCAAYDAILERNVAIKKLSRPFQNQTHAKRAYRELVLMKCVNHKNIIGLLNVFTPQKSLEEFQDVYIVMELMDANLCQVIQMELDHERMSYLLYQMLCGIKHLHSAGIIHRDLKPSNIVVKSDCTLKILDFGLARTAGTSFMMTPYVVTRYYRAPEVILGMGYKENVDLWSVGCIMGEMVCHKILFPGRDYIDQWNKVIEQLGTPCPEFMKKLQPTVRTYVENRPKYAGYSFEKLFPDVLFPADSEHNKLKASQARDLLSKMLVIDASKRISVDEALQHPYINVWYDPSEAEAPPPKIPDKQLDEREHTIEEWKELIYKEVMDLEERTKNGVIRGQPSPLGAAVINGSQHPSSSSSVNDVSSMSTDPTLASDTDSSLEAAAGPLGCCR

CDK8 = target: T6, CDK8 (Homo sapiens, UniProt P49336); experiment: LanthaScreen Eu kinase assay (Life Technologies), CDK8; assay type: binding; conditions: co-factor cyclin C
T6 construct: purchased Life Technologies (assay service)
T6 sequence (P49336 whole entry): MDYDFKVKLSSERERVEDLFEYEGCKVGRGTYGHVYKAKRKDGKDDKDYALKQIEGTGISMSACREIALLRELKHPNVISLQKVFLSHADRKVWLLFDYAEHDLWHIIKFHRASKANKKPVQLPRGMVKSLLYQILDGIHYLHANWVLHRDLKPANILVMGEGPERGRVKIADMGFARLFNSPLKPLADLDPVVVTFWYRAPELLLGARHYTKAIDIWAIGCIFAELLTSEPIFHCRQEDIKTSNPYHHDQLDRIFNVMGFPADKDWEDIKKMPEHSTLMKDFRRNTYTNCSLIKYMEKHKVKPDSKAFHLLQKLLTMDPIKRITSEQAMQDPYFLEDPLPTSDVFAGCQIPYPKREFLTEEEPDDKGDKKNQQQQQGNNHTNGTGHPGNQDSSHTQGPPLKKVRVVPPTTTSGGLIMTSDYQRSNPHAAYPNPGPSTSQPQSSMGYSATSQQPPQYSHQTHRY
T6 sequence (P24863 whole entry partner): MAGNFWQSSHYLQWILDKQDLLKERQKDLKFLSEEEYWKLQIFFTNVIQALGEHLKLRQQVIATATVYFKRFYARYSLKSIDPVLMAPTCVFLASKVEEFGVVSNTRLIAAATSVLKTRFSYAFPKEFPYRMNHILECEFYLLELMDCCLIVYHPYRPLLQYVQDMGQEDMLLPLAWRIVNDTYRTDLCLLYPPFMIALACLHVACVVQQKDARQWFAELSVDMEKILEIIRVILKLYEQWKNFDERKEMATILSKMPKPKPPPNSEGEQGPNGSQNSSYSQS

CDK5/p35 = CDK5/p35 (Homo sapiens, UniProt Q00535); experiment: Z'-Lyte kinase assay (Life Technologies), CDK5/p35
Procedure: as §1

CDK2 = target: T7, CDK2 (Homo sapiens, UniProt P24941); experiment: Z'-Lyte kinase assay (Life Technologies), CDK2; assay type: biochemical; conditions: co-factor cyclin A
T7 construct: purchased Life Technologies (assay service)

JNK2 = target: T8, JNK2 (Homo sapiens, UniProt P45984); experiment: Z'-Lyte kinase assay (Life Technologies), JNK2; assay type: biochemical
T8 construct: purchased Life Technologies (assay service)
T8 sequence (P45984 whole entry): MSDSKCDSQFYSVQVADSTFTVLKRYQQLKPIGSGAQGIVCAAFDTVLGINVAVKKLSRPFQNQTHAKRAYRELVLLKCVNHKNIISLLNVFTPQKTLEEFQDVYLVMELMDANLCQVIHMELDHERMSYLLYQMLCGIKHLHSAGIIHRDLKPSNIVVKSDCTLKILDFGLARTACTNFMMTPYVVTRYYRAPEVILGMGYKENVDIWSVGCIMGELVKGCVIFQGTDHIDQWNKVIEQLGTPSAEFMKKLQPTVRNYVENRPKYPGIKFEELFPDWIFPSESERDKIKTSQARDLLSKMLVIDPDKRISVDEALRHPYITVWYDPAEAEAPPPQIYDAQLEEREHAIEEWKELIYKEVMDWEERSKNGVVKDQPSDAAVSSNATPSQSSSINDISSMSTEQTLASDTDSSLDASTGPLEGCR

CC(C)[C@]12O[C@H]1[C@@H]1O[C@]13[C@]1(O[C@H]1C[C@H]1C4=C(CC[C@@]13C)C(=O)OC4)[C@@H]2O [Triptolide, triptolide, reference compound]
IC50 (SAOS): < 500 nM
IC50 (MNNG-HOS Cl #5): < 500 nM
IC50 (Hs863T): > 5000 nM
IC50 (MCF7): < 500 nM
IC50 (MCF10A): < 500 nM
IC50 (T47D): > 5000 nM
IC50 (MV4-11): < 500 nM
IC50 (A673): < 500 nM
IC50 (RD-ES): < 500 nM
IC50 (RS4-11): < 500 nM
IC50 (THP-1): < 500 nM
IC50 (HL60): < 500 nM
IC50 (143B): < 500 nM
IC50 (Hs822T): 500 to 5000 nM
IC50 (hTERT-HME1): < 500 nM
IC50 (MDA-MB231): < 500 nM
IC50 (SK-ES-1): < 500 nM
IC50 (SKBR3): < 500 nM

CN(C)C/C=C/C(=O)Nc1ccc(C(=O)N[C@H]2CCC[C@H](Nc3ncc(Cl)c(-c4c[nH]c5ccccc45)n3)C2)cc1 [compound 103]
IC50 (SAOS): 500 to 5000 nM
IC50 (CDK5/p25): > 1000 nM
inhibition at 0.1 µM (CDK5/p25; read-out: CDK5^a,c percent inhibition): < 50%
inhibition at 1 µM (CDK5/p25; read-out: CDK5^b,c percent inhibition): < 50%
IC50 (MLK3; Table 2, read-out: MLK3 (calculated IC50)): > 1000 nM
inhibition at 0.1 µM (MLK3; compound tested at 100 nM, read-out: MLK3^a percent inhibition): < 50%
IC50 (MNNG-HOS Cl #5): > 5000 nM
inhibition at 0.1 µM (CDK9/cyclin T1; read-out: CDK9^a,e percent inhibition): < 50%
inhibition at 1 µM (CDK9/cyclin T1; read-out: CDK9^b,e percent inhibition): 50 to 70%
IC50 (CDK7; Table 1C, co-factors cyclin H and MNAT1, read-out: CDK7 IC50): 100 to 1000 nM
IC50 (CDK7; Table 2, co-factors cyclin H and MNAT1, read-out: CDK7 (calculated IC50)): 100 to 1000 nM
IC50 (Hs863T): > 5000 nM
IC50 (MCF7): 500 to 5000 nM
inhibition at 0.1 µM (IRAK1; compound tested at 100 nM, read-out: IRAK1^a percent inhibition): < 50%
inhibition at 1 µM (IRAK1; compound tested at 1 μM, read-out: IRAK1^b percent inhibition): < 50%
inhibition at 0.1 µM (CDK1; compound tested at 100 nM, read-out: CDK1^a percent inhibition): < 50%
inhibition at 1 µM (CDK1; compound tested at 1 μM, read-out: CDK1^b percent inhibition): < 50%
IC50 (Jurkat cells): 500 to 5000 nM
IC50 (MCF10A): < 500 nM
inhibition at 0.1 µM (JNK1; compound tested at 100 nM, read-out: JNK1^a percent inhibition): < 50%
inhibition at 1 µM (JNK1; compound tested at 1 μM, read-out: JNK1^b percent inhibition): 50 to 70%
IC50 (T47D): > 5000 nM
IC50 (MV4-11): < 500 nM
inhibition at 0.1 µM (CDK8; compound tested at 100 nM, read-out: CDK8^a percent inhibition): < 50%
inhibition at 1 µM (CDK8; compound tested at 1 μM, read-out: CDK8^b percent inhibition): < 50%
IC50 (A673): < 500 nM
IC50 (RD-ES): 500 to 5000 nM
inhibition at 0.1 µM (CDK5/p35; read-out: CDK5^a,d percent inhibition): < 50%
inhibition at 1 µM (CDK5/p35; read-out: CDK5^b,d percent inhibition): < 50%
IC50 (RS4-11): 500 to 5000 nM
IC50 (THP-1): 500 to 5000 nM
inhibition at 0.1 µM (CDK2; compound tested at 100 nM, read-out: CDK2^a percent inhibition): < 50%
inhibition at 1 µM (CDK2; compound tested at 1 μM, read-out: CDK2^b percent inhibition): < 50%
IC50 (HL60): 500 to 5000 nM
IC50 (143B): > 5000 nM
IC50 (Hs822T): > 5000 nM
inhibition at 0.1 µM (JNK2; compound tested at 100 nM, read-out: JNK2^a percent inhibition): < 50%
inhibition at 1 µM (JNK2; compound tested at 1 μM, read-out: JNK2^b percent inhibition): > 70%
IC50 (hTERT-HME1): 500 to 5000 nM
IC50 (MDA-MB231): 500 to 5000 nM
IC50 (SK-ES-1): 500 to 5000 nM
IC50 (SKBR3): > 5000 nM
